Results: patent US20230265116A1, “DEGRADATION OF (EGFR) BY CONJUGATION OF EGFR INHIBITORS WITH E3 LIGASE LIGAND AND METHODS OF USE” (BEIGENE, LTD., priority 2020, published 2023)

Tests used:
Format in all cases: cell-based
[1] = target: T1, EGFR L858R/C797S (BaF3 LC cells) (Homo sapiens, UniProt P00533, C797S/L858R); assay: EGFR degradation HTRF assay, BaF3 LC cells; settings: BaF3 LC, 16h treatment; for Dmax: maximum percentage of degradation, read-out: BaF3 LC Dmax (%); for DC50: read-out: BaF3 LC DC50
T1 construct: expressed in transfected cells; host or cells: BaF3

[2] = tested on: EGFR Del19/C797S (H1975-clone #23); assay: EGFR degradation HTRF assay, H1975-clone #23 DC cells; settings: 16h treatment; for H1975 #23 DC Dmax (%): maximum percentage of degradation; for DC50: H1975 #23 DC, read-out: H1975 #23 DC DC50
Outline: (§1)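 Engineered H1975 lines (lentiviral mutant EGFR, endogenous EGFR knocked out, single-clone verified); 16h compound, 37° C., 5% CO2, 0.2% DMSO; 8-point 5-fold series from 10 uM final. HTRF lysate read; % degradation vs DMSO, four-parameter fit → DC50, Dmax.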

[3] = tested on: EGFR Del19/T790M/C797S (H1975-clone #28); assay: EGFR degradation HTRF assay, H1975-clone #28 DTC cells; settings: H1975 # 28 DTC cells; for DC50: EGFR degradation, IC50 (DC50) from curve fit, read-out: DC50(nM) H1975 # 28 DTC; for Dmax (%) H1975 # 28 DTC: maximum percentage of inhibition (degradation)
Outline: as §1

[4] = target: T2, EGFR L858R/T790M/C797S (BaF3-LTC cells) (Homo sapiens, UniProt P00533, C797S/L858R/T790M); assay: EGFR degradation HTRF assay, BaF3-LTC cells; settings: BaF3-LTC cells; for DC50: EGFR degradation, IC50 (DC50) from curve fit, read-out: DC50(nM) BaF3-LTC; for Dmax: read-out: Dmax (%) BaF3-LTC
T2 construct: expressed in transfected cells; host or cells: BaF3
Outline: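 Cells treated 16 h at 37 °C, 5% CO2 in medium with 0.2% DMSO; top final concentration 10 uM, 5-fold dilution, 8 doses. Lysates read by HTRF (665/620 nm); degradation % versus DMSO high control, DC50 from four-parameter fit, Dmax as maximal degradation.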

[5] = maximum percentage of inhibition (degradation)

T1 sequence (P00533 25-1210 C797S/L858R): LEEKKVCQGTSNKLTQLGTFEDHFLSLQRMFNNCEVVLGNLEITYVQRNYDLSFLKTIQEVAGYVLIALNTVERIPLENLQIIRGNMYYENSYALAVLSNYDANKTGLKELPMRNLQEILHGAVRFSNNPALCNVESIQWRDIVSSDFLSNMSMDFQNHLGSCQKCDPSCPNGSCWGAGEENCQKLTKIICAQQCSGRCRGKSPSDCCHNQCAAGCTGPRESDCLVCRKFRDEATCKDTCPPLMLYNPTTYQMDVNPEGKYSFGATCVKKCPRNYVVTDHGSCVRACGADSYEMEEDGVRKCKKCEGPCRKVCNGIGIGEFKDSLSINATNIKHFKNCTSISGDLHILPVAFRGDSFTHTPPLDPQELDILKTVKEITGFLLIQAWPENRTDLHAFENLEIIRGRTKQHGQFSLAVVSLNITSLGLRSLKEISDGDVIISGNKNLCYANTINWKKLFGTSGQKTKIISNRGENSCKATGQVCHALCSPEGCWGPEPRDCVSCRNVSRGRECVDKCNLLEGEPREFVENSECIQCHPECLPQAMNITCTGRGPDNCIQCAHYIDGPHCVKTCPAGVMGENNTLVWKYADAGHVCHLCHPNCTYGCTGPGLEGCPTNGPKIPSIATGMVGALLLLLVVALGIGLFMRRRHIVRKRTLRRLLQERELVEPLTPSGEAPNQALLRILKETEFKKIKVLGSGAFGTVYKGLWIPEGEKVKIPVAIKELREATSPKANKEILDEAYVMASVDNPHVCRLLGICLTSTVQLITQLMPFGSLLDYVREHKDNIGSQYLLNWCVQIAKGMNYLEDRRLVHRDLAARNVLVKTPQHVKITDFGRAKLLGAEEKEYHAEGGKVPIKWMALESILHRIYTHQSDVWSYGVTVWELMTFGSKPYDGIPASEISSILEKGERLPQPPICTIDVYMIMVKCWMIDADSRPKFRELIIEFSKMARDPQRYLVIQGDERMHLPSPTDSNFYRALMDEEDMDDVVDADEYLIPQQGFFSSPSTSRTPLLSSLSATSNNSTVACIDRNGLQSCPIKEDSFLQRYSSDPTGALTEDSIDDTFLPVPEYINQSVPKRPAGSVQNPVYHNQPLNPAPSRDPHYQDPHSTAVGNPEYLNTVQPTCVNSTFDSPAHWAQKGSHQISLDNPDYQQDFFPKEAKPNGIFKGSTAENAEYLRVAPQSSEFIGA
T2 sequence (P00533 25-1210 T790M/C797S/L858R): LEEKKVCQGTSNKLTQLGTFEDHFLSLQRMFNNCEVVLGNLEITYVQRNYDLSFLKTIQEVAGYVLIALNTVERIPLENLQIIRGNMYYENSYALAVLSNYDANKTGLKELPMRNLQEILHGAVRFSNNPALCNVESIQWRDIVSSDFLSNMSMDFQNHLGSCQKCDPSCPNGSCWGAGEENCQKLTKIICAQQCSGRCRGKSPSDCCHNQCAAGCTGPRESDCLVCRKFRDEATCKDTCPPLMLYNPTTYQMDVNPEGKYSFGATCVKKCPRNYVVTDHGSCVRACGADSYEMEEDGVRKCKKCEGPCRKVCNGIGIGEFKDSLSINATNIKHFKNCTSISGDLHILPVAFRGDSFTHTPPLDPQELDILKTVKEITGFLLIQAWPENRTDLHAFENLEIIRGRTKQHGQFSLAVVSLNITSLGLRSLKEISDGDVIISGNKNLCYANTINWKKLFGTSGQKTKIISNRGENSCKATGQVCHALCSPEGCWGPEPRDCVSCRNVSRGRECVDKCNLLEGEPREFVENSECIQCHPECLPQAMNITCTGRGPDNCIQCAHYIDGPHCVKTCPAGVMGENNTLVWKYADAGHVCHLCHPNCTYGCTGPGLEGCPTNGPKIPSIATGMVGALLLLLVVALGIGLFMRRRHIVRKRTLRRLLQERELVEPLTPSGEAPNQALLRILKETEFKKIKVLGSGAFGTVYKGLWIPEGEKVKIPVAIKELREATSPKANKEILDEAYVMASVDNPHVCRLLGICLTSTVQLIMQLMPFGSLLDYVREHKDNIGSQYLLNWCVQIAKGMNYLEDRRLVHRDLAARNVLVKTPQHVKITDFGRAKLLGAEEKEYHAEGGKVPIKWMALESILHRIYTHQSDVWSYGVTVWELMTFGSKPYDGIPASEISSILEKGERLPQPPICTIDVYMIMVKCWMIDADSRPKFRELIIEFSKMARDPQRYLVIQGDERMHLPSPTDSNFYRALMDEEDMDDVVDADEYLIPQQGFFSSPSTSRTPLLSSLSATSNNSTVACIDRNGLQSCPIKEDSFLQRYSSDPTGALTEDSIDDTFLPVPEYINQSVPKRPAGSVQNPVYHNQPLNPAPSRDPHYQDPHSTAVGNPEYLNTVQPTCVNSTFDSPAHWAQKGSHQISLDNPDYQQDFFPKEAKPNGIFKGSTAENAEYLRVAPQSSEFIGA

Dmax [1] | DC50 [1] | DC50 [2] | DC50 [3] | DC50 [4] | Dmax [4, 5] | Dmax (%) BaF3-LTC [4, 5] | Compound | H1975 #23 DC Dmax (%) [2] | Dmax (%) H1975 # 28 DTC [3]
83.9% | 14.9 nM | 1.58 nM | 0.632 nM | 3.63 nM | 97.3% |  | CCc1cc(Nc2ncc(Br)c(Nc3ccc4c(=O)n(C)ncc4c3P(C)(C)=O)n2)c(OC)cc1N1CCC(N2CCN(C(=O)[C@@H]3CCN(c4cc(F)c([C@H]5CCC(=O)NC5=O)c(F)c4)C3)CC2)CC1 [Example 528, (R)-3-(4-((R)-3-(4-(1-(4-((5-bromo-4-((5-(dimethylphosphoryl)-2-methyl-1-oxo-1,2-dihydrophthalazin-6-yl)amino)pyrimidin-2-yl)amino)-2-ethyl-5-methoxyphenyl)piperidin-1)piperazine-1-carbonyl)pyrrolidin-1-yl)2,6-difluorophenyl)piperidine-2,6-dione] | 54.87% | 86.11%
83.5% | 51.8 nM | 9.42 nM | 1.55 nM | 7.03 nM | 96.4% |  | CCOc1cc(N2CCC(N3CCN(C(=O)[C@@H]4CCN(c5cc(F)c([C@H]6CCC(=O)NC6=O)c(F)c5)C4)CC3)CC2)c(CC)cc1Nc1ncc(Br)c(Nc2ccc3nc(C)ccc3c2P(C)(C)=O)n1 [Example 531, (R)-3-(4-((R)-3-(4-(1-(4-((5-bromo-4-((5-(dimethylphosphoryl)-2-methylquinolin-6-yl)amino)pyrimidin-2-yl)amino)-5-ethoxy-2-ethylphenyl)piperidin-4-yl)piperazine-1-carbonyl)pyrrolidin-1-yl)-2,6-difluorophenyl)piperidine-2,6-dione] | 53.36% | 74.06%
88.1% | 3.84 nM | 0.591 nM | 0.642 nM | 2.96 nM |  | 95.58% | CCOc1cc(N2CCC(N3CCN(CCc4ccc5c(c4)oc(=O)n5C4CCC(=O)NC4=O)CC3)CC2)c(CC)cc1Nc1ncc(Br)c(Nc2ccc3nc(C)ccc3c2P(C)(C)=O)n1 (stereo not drawn) [Example 532] | 52.49% | 70.91%
90.8% | 28.8 nM | 7.47 nM | 1.18 nM | 5.05 nM | 97.2% |  | CCc1ccc2c(P(C)(C)=O)c(Nc3nc(Nc4cc(CC)c(N5CCC(N6CCN(C(=O)[C@@H]7CCN(c8cc(F)c([C@H]9CCC(=O)NC9=O)c(F)c8)C7)CC6)CC5)cc4OC)ncc3Br)cc(F)c2n1 [Example 533, (R)-3-(4-((R)-3-(4-(1-(4-((5-bromo-4-((5-(dimethylphosphoryl)-2-ethyl-8-fluoroquinolin-6-yl)amino)pyrimidin-2-yl)amino)-2-ethyl-5-methoxyphenyl)piperidin-4-yl)piperazine-1-carbonyl)pyrrolidin-1-yl)-2,6-difluorophenyl)piperidine-2,6-dione] | 73.47% | 83.78%
90.2% | 10.2 nM | 2.16 nM | 0.749 nM | 4.2 nM | 93.7% |  | CCOc1cc(N2CCC(N3CCN(CCc4cc(F)c([C@H]5CCC(=O)NC5=O)c(F)c4)CC3)CC2)c(CC)cc1Nc1ncc(Br)c(Nc2cc(F)c3nc(C)ccc3c2P(C)(C)=O)n1 [Example 534, (R)-3-(4-(2-(4-(1-(4-((5-bromo-4-((5-(dimethylphosphoryl)-8-fluoro-2-methylquinolin-6-yl)amino)pyrimidin-2-yl)amino)-5-ethoxy-2-ethylphenyl)piperidin-4-yl)piperazin-1-yl)ethyl)-2,6-difluorophenyl)piperidine-2,6-dione] | 80.71% | 83.48%
 | 1.59 nM | 2.96 nM | 0.601 nM | 3.1 nM |  |  | CCc1ncc2c(P(C)(C)=O)c(Nc3nc(Nc4cc(CC)c(N5CCC(N6CCN(C(=O)[C@@H]7CCN(c8cc(F)c([C@H]9CCC(=O)NC9=O)c(F)c8)C7)CC6)CC5)cc4OC)ncc3Br)ccc2n1 [Example 549, (R)-3-(4-((R)-3-(4-(1-(4-((5-bromo-4-((5-(dimethylphosphoryl)-2-ethylquinazolin-6-yl)amino)pyrimidin-2-yl)amino)-2-ethyl-5-methoxyphenyl)piperidin-4-yl)piperazine-1-carbonyl)pyrrolidin-1-yl)-2,6-difluorophenyl)piperidine-2,6-dione] | 63.66% | 88.85%
 | 46.5 nM | 5.64 nM | 1.62 nM | 6.19 nM |  |  | CCOc1cc(N2CCC(N3CCN(CC4CN(c5cc(F)c([C@H]6CCC(=O)NC6=O)c(F)c5)C4)CC3)CC2)c(CC)cc1Nc1ncc(Br)c(Nc2ccc3c(=O)n(CC)ncc3c2P(C)(C)=O)n1 [Example 551, (R)-3-(4-(3-((4-(1-(4-((5-bromo-4-((5-(dimethylphosphoryl)-2-ethyl-1-oxo-1,2-dihydrophthalazin-6-yl)amino)pyrimidin-2-yl)amino)-5-ethoxy-2-ethylphenyl)piperidin-4-yl)piperazin-1-yl)methyl)azetidin-1-yl)-2,6-difluorophenyl)piperidine-2,6-dione] | 84.14% | 90.57%
93.3% | 1.23 nM | 0.828 nM | 0.712 nM | 2.49 nM | 90.7% |  | CCOc1cc(N2CCC(N3CCN(CCc4cc5oc(=O)n(C6CCC(=O)NC6=O)c5cc4C)CC3)CC2)c(CC)cc1Nc1ncc(Br)c(Nc2cc(F)c3nc(CC)ccc3c2P(C)(C)=O)n1 (stereo not drawn) [Example 553, 3-(6-(2-(4-(1-(4-((5-bromo-4-((5-(dimethylphosphoryl)-2-ethyl-8-fluoroquinolin-6-yl)amino)pyrimidin-2-yl)amino)-5-ethoxy-2-ethylphenyl)piperidin-4-yl)piperazin-1-yl)ethyl)-5-methyl-2-oxobenzo[d]oxazol-3(2H)-yl)piperidine-2,6-dione] | 53.56% | 61.54%
 | 26.9 nM | 5.38 nM | 0.364 nM | 12 nM |  |  | CCOc1cc(N2CCC(N3CCN(CCc4c(F)ccc5c4n(CC)c(=O)n5C4CCC(=O)NC4=O)CC3)CC2)c(CC)cc1Nc1ncc(Br)c(Nc2ccc3c(=O)n(CC)ncc3c2P(C)(C)=O)n1 (stereo not drawn) [Example 559, 3-(4-(2-(4-(1-(4-((5-bromo-4-((5-(dimethylphosphoryl)-2-ethyl-1-oxo-1,2-dihydrophthalazin-6-yl)amino)pyrimidin-2-yl)amino)-5-ethoxy-2-ethylphenyl)piperidin-4-yl)piperazin-1-yl)ethyl)-3-ethyl-5-fluoro-2-oxo-2,3-dihydro-1H-benzo[d]imidazol-1-yl)piperidine-2,6-dione] | 73.67% | 80.93%
 | 13.2 nM | 3.05 nM | 0.946 nM | 3.49 nM |  |  | CCOc1cc(N2CCC(N3CCN(CCc4cccc5c4C4(CC4)C(=O)N5C4CCC(=O)NC4=O)CC3)CC2)c(CC)cc1Nc1ncc(Br)c(Nc2ccc3nc(CC)ccc3c2P(C)(C)=O)n1 (stereo not drawn) [Example 571, 3-(4′-(2-(4-(1-(4-((5-bromo-4-((5-(dimethylphosphoryl)-2-ethylquinolin-6-yl)amino)pyrimidin-2-yl)amino)-5-ethoxy-2-ethylphenyl)piperidin-4-yl)piperazin-1-yl)ethyl)-2′-oxospiro[cyclopropane-1,3′-indolin]-1′-yl)piperidine-2,6-dione] | 75.83% | 77.08%
 | 3.8 nM | 4.74 nM | 1.81 nM | 3.21 nM |  |  | CCOc1cc(N2CCC(N3CCN(CCc4cccc5c4C(C)(C)C(=O)N5C4CCC(=O)NC4=O)CC3)CC2)c(CC)cc1Nc1ncc(Br)c(Nc2ccc3nc(CC)ccc3c2P(C)(C)=O)n1 (stereo not drawn) [Example 572, 3-(4-(2-(4-(1-(4-((5-bromo-4-((5-(dimethylphosphoryl)-2-ethylquinolin-6-yl)amino)pyrimidin-2-yl)amino)-5-ethoxy-2-ethylphenyl)piperidin-4-yl)piperazin-1-yl)ethyl)-3,3-dimethyl-2-oxoindolin-1-yl)piperidine-2,6-dione] | 69.16% | 83.86%
